One test concerns neointima formation. Conditions: rats; cited from earlier work.
The target in a further test is Cdk9/cyclinT1 (Homo sapiens, UniProt P50750). In words: Cdk9/CyclinT1 IMAP assay.

Data on 20 compounds can be found in patent US20130324530A1 (Novartis AG, priority 2010, published 2013).

SMILES strings stand for the structures. Bounds are passed on as bounds.

Chain of Cdk9/cyclinT1 (P50750 whole entry): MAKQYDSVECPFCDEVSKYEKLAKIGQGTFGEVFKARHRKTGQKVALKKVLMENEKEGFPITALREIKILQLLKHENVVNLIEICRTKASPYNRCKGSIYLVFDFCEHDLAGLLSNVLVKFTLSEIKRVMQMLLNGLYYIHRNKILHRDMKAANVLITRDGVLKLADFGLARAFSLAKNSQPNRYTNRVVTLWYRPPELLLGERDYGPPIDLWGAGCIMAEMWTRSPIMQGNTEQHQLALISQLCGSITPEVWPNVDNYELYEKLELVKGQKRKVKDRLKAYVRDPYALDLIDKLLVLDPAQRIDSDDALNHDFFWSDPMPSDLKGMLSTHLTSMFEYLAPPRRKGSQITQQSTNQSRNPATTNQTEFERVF
Chain of Cdk9/cyclinT1 (O60563 whole entry partner): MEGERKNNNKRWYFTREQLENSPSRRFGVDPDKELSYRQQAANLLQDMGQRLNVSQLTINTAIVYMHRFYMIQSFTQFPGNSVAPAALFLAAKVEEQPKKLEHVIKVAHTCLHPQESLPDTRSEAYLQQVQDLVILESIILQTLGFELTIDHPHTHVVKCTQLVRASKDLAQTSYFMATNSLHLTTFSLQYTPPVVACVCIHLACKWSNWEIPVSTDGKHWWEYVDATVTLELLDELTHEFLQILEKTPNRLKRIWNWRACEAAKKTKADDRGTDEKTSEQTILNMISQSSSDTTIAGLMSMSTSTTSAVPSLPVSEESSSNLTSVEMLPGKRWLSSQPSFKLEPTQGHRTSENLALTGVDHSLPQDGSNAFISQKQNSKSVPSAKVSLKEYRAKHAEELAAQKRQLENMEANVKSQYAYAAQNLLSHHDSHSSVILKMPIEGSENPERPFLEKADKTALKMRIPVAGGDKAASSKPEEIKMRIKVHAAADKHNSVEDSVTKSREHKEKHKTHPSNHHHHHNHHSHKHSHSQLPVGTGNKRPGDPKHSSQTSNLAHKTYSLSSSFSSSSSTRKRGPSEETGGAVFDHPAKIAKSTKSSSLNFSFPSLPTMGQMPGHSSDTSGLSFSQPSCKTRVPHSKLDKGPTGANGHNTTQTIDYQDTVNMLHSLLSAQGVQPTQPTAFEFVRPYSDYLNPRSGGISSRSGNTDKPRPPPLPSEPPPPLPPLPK
Protocol for Cdk9/cyclinT1: The final total protein concentration in the assay is 4 nM. […] The final concentration of peptide substrate is 100 nM. […] The final concentration of ATP substrate is 6 uM. IMAP (Immobilized Metal Assay for Phosphochemicals) Progressive Binding reagent is purchased from Molecular Devices, cat#R8139. Fluorescence polarization (FP) is used for detection. The 5TAMRA-cdk7tide peptide is phosphorylated by Cdk9/cyclinT1 kinase using the ATP substrate. The Phospho-5TAMRA-cdk7tide peptide substrate is bound to the IMAP Progressive Binding Reagent. […] IMAP Progressive Binding Reagent is diluted 1:800 in 100% 1× Solution A from Molecular Devices, cat#R7285.
General protocol is as follows: To 10 ul of cdk9/cyclinT1, 0.5 ul of test compound in dimethyl sulfoxide is added. [sequence]-cdk7tide and ATP are mixed. 10 ul of the 5TAMRA-cdk7tide/ATP mix is added to start the reaction. The reaction is allowed to proceed for 4.5 hrs. 60 uL of IMAP Progressive Binding Reagent is added.

Take `COc1ccc(CNc2nc(N(CCO)CCO)nc3c2ncn3C(C)C)cc1` [CVT-313]: in the test with neointima formation, the “inhibition of neointima formation” value was “greater than 80%”. In general, IC50 refers to the concentration that inhibits the measured activity by half. `CS(=O)(=O)N1CCC(CNc2cncc(-c3cc(N[C@H]4CC[C@H](N)CC4)ncc3Cl)c2)CC1` [Compound 52] registered an IC50 against Cdk9/cyclinT1 of 0.035 µM. On the same count and under the same terms, with `O[C@@H](CN[C@H]1CC[C@H](Nc2cc(-c3cc(NCC4CCOCC4)cnc3Cl)c(Cl)cn2)CC1)C(F)(F)F` [Compound 73] the figure was 0.002 µM; with `CC(=O)N1CCC(CNc2cncc(-c3cc(N[C@H]4CC[C@H](N)CC4)ncc3Cl)c2)CC1` [Compound 36, 1-(4-((2′-(trans-4-aminocyclohexylamino)-5′-chloro-3,4′-bipyridin-5-ylamino)methyl)piperidin-1-yl)ethanone], 0.032 µM. Same read-out and setting: to `Clc1cnc(N[C@H]2CC[C@H](NC[C@@H]3CCCO3)CC2)cc1-c1cc(NCC2CCOCC2)cnc1Cl` [Compound 65] belongs < 0.008 µM. As for `COCCN[C@H]1CC[C@H](Nc2cc(-c3cncc(NCc4cccc(F)c4)c3)c(Cl)cn2)CC1` [Compound 82], at Cdk9/cyclinT1, the IC50 was < 0.008 µM. On the same count and under the same terms, to `N[C@H]1CC[C@H](Nc2cc(-c3cncc(NCc4ccccc4)c3)c(Cl)cn2)CC1` [Compound 51] belongs < 0.008 µM. Still for that read-out and setting: with `N[C@H]1CC[C@H](Nc2cc(-c3cncc(NCC4CCCCC4)c3)c(Cl)cn2)CC1` [Compound 23] the figure was 0.01 µM; with `OC[C@H]1CC[C@H](Nc2cc(-c3cnc(Cl)c(NCC4CCOCC4)c3)c(Cl)cn2)CC1` [Compound 80], < 0.008 µM; with `Clc1cnc(NCC[C@H]2CCCNC2)cc1-c1cncc(NCC2CCOCC2)c1` [Compound 56], 0.068 µM.

On Cdk9/cyclinT1, `CC(C)(CN)CNc1cc(-c2cncc(NCc3cccc(F)c3)c2)c(Cl)cn1` [Compound 12] had a half-maximal inhibitory concentration (IC50) of 0.032 µM. Same read-out and setting: to `NC[C@H]1CC[C@H](Nc2cc(-c3cncc(NCc4cccc(F)c4)c3)c(Cl)cn2)CC1` [Compound 39, N2′-(trans-4-(aminomethyl)cyclohexyl)-5′-chloro-N5-(3-fluorobenzyl)-3,4′-bipyridine-2′,5-diamine] belongs < 0.008 µM. On the same count and under the same terms, to `Fc1cccc(CNc2cncc(-c3cc(NCC4CCOCC4)ncc3Cl)c2)c1` [Compound 70] belongs 0.009 µM; to `COCCNc1cc(-c2cncc(NCC3CCOCC3)c2)c(Cl)cn1` [Compound 58], 2.26 µM; to `C[C@@H](CO)Nc1cc(-c2cncc(NCC3CCOCC3)c2)c(Cl)cn1` [Compound 67], 0.335 µM. The same measure, in the same setting: to `COc1ncc(-c2cc(N[C@H]3CC[C@H](N)CC3)ncc2Cl)cc1NCC1CCOCC1` [Compound 85] belongs 0.096 µM; to `Fc1cccc(CNc2cc(-c3cc(NC4CCCC4)ncc3Cl)cnc2N2CCOCC2)c1` [Compound 66], 1.49 µM. In turn, `O[C@H]1CC[C@H](Nc2cc(-c3cnc(N4CCOCC4)c(NCc4cccc(F)c4)c3)c(Cl)cn2)CC1` [Compound 53] showed a half-inhibitory concentration (IC50) on Cdk9/cyclinT1 of 0.66 µM.

At Cdk9/cyclinT1, `O[C@H]1CCCC[C@@H]1N[C@H]1CC[C@H](Nc2cc(-c3cnc(Cl)c(NCC4CCOCC4)c3)c(Cl)cn2)CC1` [Compound 91] showed an IC50 of 0.0027 µM. Against the preceding compound, the IC50 is about 240-fold lower. The same measure, in the same setting: to `N[C@H]1CC[C@H](Nc2cc(-c3cnc(F)c(NCC4CCOCC4)c3)c(Cl)cn2)CC1` [Compound 55, N2′-(trans-4-aminocyclohexyl)-5′-chloro-6-fluoro-N5-((tetrahydro-2H-pyran-4-yl)methyl)-3,4′-bipyridine-2′,5-diamine] belongs < 0.008 µM.
